Read-outs that look alike come from different tables or passages of the source.
Tests used:
[1] = target: T1, CB1 receptor (Homo sapiens, UniProt P21554); experiment: cell-based; settings: SK-N-MC cells
T1 construct: expressed in transfected cells
Source text: The CB1 and CB2 receptors are G-protein coupled receptors (GPCR), which influence cell function via the Gi-protein. These receptors modulate the activity of intracellular adenylate cyclase, which in turn produces the intracellular signal messenger cyclic-AMP (cAMP).
At baseline, or during non-ligand bound conditions, these receptors are constitutively active and tonically suppress adenylate cyclase activity. The binding of an agonist causes further receptor activation and produces additional suppression of adenylate cyclase activity. The binding of an inverse agonist inhibits the constitutive activity of the receptors and results in an increase in adenylate cyclase activity.
By monitoring intracellular adenylate cyclase activity, the ability of compounds to act as agonists or inverse agonists can be determined.
Test compounds were evaluated in SK-N-MC cells which, using standard transfection procedures, were stably transfected with human cDNA for pcDNA3-CRE β-gal and pcDNA3 CB1 receptor (human) or pcDNA3 CB2 receptor (human). By expressing CRE β-gal, the cells produced β-galactosidase in response to CRE promoter activation by cAMP. Cells expressing CRE β-gal and either the human CB1 or CB2 receptor will produce less β-galactosidase when treated with a CB1/CB2 agonist and will produce more β-galactosidase when treated with a CB1/CB2 inverse agonist.
The cells were grown in 96-well plates under standard cell culture conditions at 37° C. in a 5% CO2 atmosphere and culture media (wherein the media was supplemented with 2 mM L-glutamine, […] sodium pyruvate, 10% FBS (fetal bovine serum) and antibiotics).
The change in forskolin induced β-galactosidase activity was determined by setting a vehicle treated cell's activity value at 100% and expressing the β-galactosidase activity measured in a corresponding compound treated cell as a percent of the vehicle treated cell activity.
The EC50 value for functional activity for compounds tested was calculated by linear regression and was obtained from studies in which varying compound concentrations were used.
Where an EC50 value was not obtained for a test compound, the value shown (in %) represents change in functional activity and was obtained from a study in which one compound concentration was used.

[2] = target: T2, CB2 receptor (Homo sapiens, UniProt P34972); experiment: Binding assay for CB2 agonists or inverse agonists (SK-N-MC membranes, [3H]-CP-55,940); settings: for CB2 receptor binding percent inhibition: test concentration not stated
T2 construct: expressed in transfected cells
T2 sequence (P34972 whole entry): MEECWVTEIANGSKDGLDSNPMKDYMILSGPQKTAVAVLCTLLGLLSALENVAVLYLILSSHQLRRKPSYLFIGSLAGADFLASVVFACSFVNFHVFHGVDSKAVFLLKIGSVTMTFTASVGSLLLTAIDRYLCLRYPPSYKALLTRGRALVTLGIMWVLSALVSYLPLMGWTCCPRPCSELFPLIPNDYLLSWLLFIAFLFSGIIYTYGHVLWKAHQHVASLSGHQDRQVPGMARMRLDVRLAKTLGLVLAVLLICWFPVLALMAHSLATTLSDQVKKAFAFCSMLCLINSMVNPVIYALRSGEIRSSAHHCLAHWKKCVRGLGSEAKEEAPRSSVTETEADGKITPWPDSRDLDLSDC
How it was run: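 Membranes from SK-N-MC cells stably expressing human CB2 were incubated with radioligand and test compounds for 90 min at 30 °C in Tris-HCl buffer, pH 7.5, with MgCl2, EDTA and fatty-acid-free BSA. Filter-bound radioactivity was counted; IC50 was derived by linear regression of percent inhibition.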

[3] = target: T1, CB1 receptor; experiment: Binding assay for CB1 agonists or inverse agonists (SK-N-MC membranes, [3H]-CP-55,940); settings: for inhibition at 1 µM: read-out: CB1 receptor binding percent inhibition, test concentration 1 μM (footnote 1); for inhibition at 0.5 µM: read-out: CB1 receptor binding percent inhibition, test concentration 0.5 μM (footnote 10); for IC50: Cannabinoid CB1 Receptor Binding IC50, calculated by linear regression from percent inhibition at various test concentrations; for inhibition at 0.2 µM: read-out: CB1 receptor binding percent inhibition, test concentration 0.2 μM (footnote 2)
How it was run: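 Membranes from SK-N-MC cells stably expressing human CB1 incubated with compound and [3H]-CP-55,940 ([…]) for 90 min at 30° C in Tris-HCl pH 7.5, MgCl2, EDTA, fatty-acid-free BSA. Non-specific binding defined with 10 uM WIN 55,212; filtration, scintillation count; IC50 by linear regression.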

[4] = CB1 Receptor Functional Inverse Agonist EC50, forskolin induced β-galactosidase activity
[5] = test concentration 1 μM (footnote 1), 1 µM
[6] = forskolin induced β-galactosidase activity, read-out: CB1 Receptor Functional Inverse Agonist EC50
[7] = test concentration 0.2 μM (footnote 2), read-out: CB2 receptor binding percent inhibition
[8] = read-out: CB2 receptor binding percent inhibition, test concentration 0.2 μM (footnote 2)

T1 sequence (P21554 whole entry): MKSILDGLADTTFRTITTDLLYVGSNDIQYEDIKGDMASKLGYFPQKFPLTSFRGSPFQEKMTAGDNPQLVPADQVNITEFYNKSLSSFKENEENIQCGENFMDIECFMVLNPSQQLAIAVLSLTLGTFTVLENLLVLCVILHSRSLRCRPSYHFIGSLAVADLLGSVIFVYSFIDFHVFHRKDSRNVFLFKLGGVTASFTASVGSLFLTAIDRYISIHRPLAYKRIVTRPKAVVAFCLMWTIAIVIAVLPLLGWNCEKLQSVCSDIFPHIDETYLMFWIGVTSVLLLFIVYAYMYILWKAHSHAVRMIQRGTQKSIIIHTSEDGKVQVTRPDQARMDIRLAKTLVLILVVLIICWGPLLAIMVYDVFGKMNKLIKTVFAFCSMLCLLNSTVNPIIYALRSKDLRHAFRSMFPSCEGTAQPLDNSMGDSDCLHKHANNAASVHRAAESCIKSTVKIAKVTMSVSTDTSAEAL

For `O=C(N[C@@H]1c2ccccc2C[C@@H]1O)c1nn(-c2ccc(Cl)cc2Cl)c2c1CCCCC2Cc1cccc(Cl)c1` (single isomer, unassigned) [Cpd 112, (8R*)-8-(3-chloro-benzyl)-1-(2,4-dichloro-phenyl)-1,4,5,6,7,8-hexahydro-cycloheptapyrazole-3-carboxylic acid [(1R,2S)-2-hydroxy-indan-1-yl]-amide], the EC50 [1, 4] was 60 nM, the “CB2 receptor binding percent inhibition” value [2] was 16% and the inhibition at 1 µM [3] was 49%.

`O=C(N[C@@H]1c2ccccc2C[C@@H]1O)c1nn(-c2ccc(Cl)cc2Cl)c2c1CCCCC2Cc1cccc(Cl)c1` (single isomer, unassigned) [Cpd 113, (8S*)-8-(3-chloro-benzyl)-1-(2,4-dichloro-phenyl)-1,4,5,6,7,8-hexahydro-cycloheptapyrazole-3-carboxylic acid [(1R,2S)-2-hydroxy-indan-1-yl]-amide] was tested, and the EC50 [1, 4] was 100 nM, the “CB2 receptor binding percent inhibition” value [2] was 28% and the inhibition at 0.5 µM [3] was 44%. The “CB1 receptor binding percent inhibition” value [3, 5] was 62% and the “CB1 receptor binding percent inhibition” value ([3]; test concentration not stated) was 53%.

For `O=C(N[C@@H]1c2ccccc2C[C@@H]1O)c1nn(C2CCCCC2)c2c1CCCCC2Cc1cccc(F)c1` (single isomer, unassigned) [Cpd 114, (8R*)-1-cyclohexyl-8-(3-fluoro-benzyl)-1,4,5,6,7,8-hexahydro-cycloheptapyrazole-3-carboxylic acid [(1R,2S)-2-hydroxy-indan-1-yl]-amide], the EC50 [1, 4] was 40 nM, the “CB2 receptor binding percent inhibition” value [2] was 47% and the “CB1 receptor binding percent inhibition” value [3, 5] was “^(1)17%”.

With `C[C@H](NS(=O)(=O)/C=C/c1nn(-c2ccc(Cl)cc2Cl)c2c1CCCCC2Cc1cccc(Cl)c1)c1ccccc1` (stereo partly drawn) [Cpd 3, (2E)-2-[8-(3-chloro-benzyl)-1-(2,4-dichloro-phenyl)-1,4,5,6,7,8-hexahydro-cycloheptapyrazol-3-yl]-ethenesulfonic acid [(1S)-1-phenyl-ethyl]-amide] the EC50 [1, 4] was 70 nM, the “CB2 receptor binding percent inhibition” value [2] was 26% and the IC50 [3] was 1300 nM. For the same compound, the inhibition at 1 µM [3] was 60%.

`C[C@@H](NC(=O)c1nn(C2CCCCC2)c2c1CCCCC2Cc1cccc(Cl)c1)c1ccccc1` (stereo partly drawn) [Cpd 8, 8-(3-chloro-benzyl)-1-cyclohexyl-1,4,5,6,7,8-hexahydro-cycloheptapyrazole-3-carboxylic acid [(1R)-1-phenyl-ethyl]-amide] was tested, and the EC50 [1, 6] was 400 nM, the “CB2 receptor binding percent inhibition” value [2] was 5% and the inhibition at 1 µM [3] was 30%.

`O=C(NC1CCC1)c1nn(-c2ccc(Cl)cc2Cl)c2c1CCCCC2Cc1ccc(Cl)cc1` (centres unmarked) [Cpd 25, 8-(4-chloro-benzyl)-1-(2,4-dichloro-phenyl)-1,4,5,6,7,8-hexahydro-cycloheptapyrazole-3-carboxylic acid cyclobutylamide] was tested, and the EC50 [1, 6] was 1200 nM, the “CB2 receptor binding percent inhibition” value [2] was 19% and the inhibition at 0.5 µM [3] was 30%. For the same compound, the inhibition at 1 µM [3] was 71% and the “CB1 receptor binding percent inhibition” value ([3]; test concentration not stated) was 51%.

In the case of `O=C(NCc1ccc(C(F)(F)F)cc1)c1nn(-c2ccc(Cl)cc2Cl)c2c1CCCCC2Cc1ccc(Cl)cc1` (centres unmarked) [Cpd 26, 8-(4-chloro-benzyl)-1-(2,4-dichloro-phenyl)-1,4,5,6,7,8-hexahydro-cycloheptapyrazole-3-carboxylic acid 4-trifluoromethyl-benzylamide], the EC50 [1, 6] is reported as 600 nM, the inhibition at 1 µM ([2]; test concentration 1 μM (footnote 1), read-out: CB2 receptor binding percent inhibition) is reported as 35% and the inhibition at 2 µM ([2]; test concentration 2 μM (footnote 6), read-out: CB2 receptor binding percent inhibition) is reported as 22%. The “CB2 receptor binding percent inhibition” value [2] was 29%, the inhibition at 1 µM [3] was 70% and the inhibition at 2 µM ([3]; read-out: CB1 receptor binding percent inhibition, test concentration 2 μM (footnote 6)) was 55%. The “CB1 receptor binding percent inhibition” value ([3]; test concentration not stated) was 63%.

With `O=C(NN1CCCCC1)c1nn(-c2ccc(Cl)cc2Cl)c2c1CCCCC2Cc1cccc(Cl)c1` (centres unmarked) [Cpd 28, 8-(3-chloro-benzyl)-1-(2,4-dichloro-phenyl)-1,4,5,6,7,8-hexahydro-cycloheptapyrazole-3-carboxylic acid piperidin-1-ylamide] the EC50 [1, 4] was 50 nM, the “CB2 receptor binding percent inhibition” value [2] was 11% and the IC50 [3] was 100 nM. For the same compound, the inhibition at 1 µM [3] was 65%.

With `O=C(NN1CCCCC1)c1nn(-c2cc(Cl)ccc2Cl)c2c1CCCC/C2=C\c1ccc(Cl)cc1` [Cpd 199, (8E)-8-(4-chloro-benzylidene)-1-(2,5-dichloro-phenyl)-1,4,5,6,7,8-hexahydro-cycloheptapyrazole-3-carboxylic acid piperidin-1-ylamide] the inhibition at 0.2 µM [2, 7] was 30% and the inhibition at 0.2 µM [3] was 30%.

`O=C(NN1CCOCC1)c1nn(-c2cc(Cl)ccc2Cl)c2c1CCCC/C2=C\c1ccc(Cl)cc1` [Cpd 200, (8E)-8-(4-chloro-benzylidene)-1-(2,5-dichloro-phenyl)-1,4,5,6,7,8-hexahydro-cycloheptapyrazole-3-carboxylic acid morpholin-4-ylamide] gave an inhibition at 0.2 µM [2, 7] of 6% and an inhibition at 0.2 µM [3] of 15%.

In the case of `O=C(c1nn(-c2cc(Cl)ccc2Cl)c2c1CCCC/C2=C\c1ccc(Cl)cc1)N1CCOCC1` [Cpd 201, (8E)-[8-(4-chloro-benzylidene)-1-(2,5-dichloro-phenyl)-1,4,5,6,7,8-hexahydro-cycloheptapyrazol-3-yl]-morpholin-4-yl-methanone], the inhibition at 0.2 µM [2, 7] is reported as 0% and the inhibition at 0.2 µM [3] is reported as 11%.

`O=C(N[C@@H](CO)c1ccccc1)c1nn(-c2ccc(Cl)cc2Cl)c2c1CCCC/C2=C\c1ccc(F)cc1` [Cpd 203, (8E)-1-(2,4-dichloro-phenyl)-8-(4-fluoro-benzylidene)-1,4,5,6,7,8-hexahydro-cycloheptapyrazole-3-carboxylic acid [(1R)-2-hydroxy-1-phenyl-ethyl]-amide] showed an inhibition at 0.2 µM [2, 8] of 30% and an inhibition at 0.2 µM [3] of 37%.

Work on `O=C(c1n[nH]c2c1CCCC/C2=C\c1ccc(Cl)cc1)N1CCCCC1` [Cpd 223, (8E)-[8-(4-chloro-benzylidene)-1,4,5,6,7,8-hexahydro-cycloheptapyrazol-3-yl]-piperidin-1-yl-methanone] yielded an inhibition at 0.2 µM [2, 7] of 58% and an inhibition at 0.2 µM [3] of 40%.

With `C[C@@H](NS(=O)(=O)C=Cc1n[nH]c2c1CCCCC2Cc1cccc(F)c1)c1ccccc1` (stereo partly drawn) [Cpd 235, 2-[8-(3-fluoro-benzyl)-1,4,5,6,7,8-hexahydro-cycloheptapyrazol-3-yl]-ethenesulfonic acid [(1R)-1-phenyl-ethyl]-amide] the inhibition at 0.2 µM [2, 7] was 41% and the inhibition at 0.2 µM [3] was 0%.

`C[C@@H](NS(=O)(=O)/C=C/c1n[nH]c2c1CCCC/C2=C\c1ccc(Cl)cc1)c1ccccc1` [Cpd 236, (2E,8E)-2-[8-(4-chloro-benzylidene)-1,4,5,6,7,8-hexahydro-cycloheptapyrazol-3-yl]-ethenesulfonic acid [(1R)-1-phenyl-ethyl]-amide] was tested, and the inhibition at 0.2 µM [2, 7] was 41% and the inhibition at 0.2 µM [3] was 0%.

In the case of `Cn1nc(C(=O)n2ccnc2)c2c1/C(=C/c1cccc(F)c1)CCCC2` [Cpd 243, (8E)-[8-(3-fluoro-benzylidene)-1-methyl-1,4,5,6,7,8-hexahydro-cycloheptapyrazol-3-yl]-imidazol-1-yl-methanone], the inhibition at 0.2 µM [2, 7] is reported as 0% and the inhibition at 0.2 µM [3] is reported as 0%.

With `O=C(N[C@H](CO)Cc1ccc(O)cc1)c1n[nH]c2c1CCCC/C2=C\c1cccc(Cl)c1` [Cpd 246, (8E)-(2S)-8-(3-chloro-benzylidene)-1,4,5,6,7,8-hexahydro-cycloheptapyrazole-3-carboxylic acid [1-hydroxymethyl-2-(4-hydroxy-phenyl)-ethyl]-amide] the inhibition at 0.2 µM [2, 7] was 15% and the inhibition at 0.2 µM [3] was 0%.

`COC(=O)[C@@H](Cc1ccc(F)cc1)NC(=O)c1nn(C)c2c1CCCC/C2=C\c1cccc(F)c1` [Cpd 248, (8E)-(2R)-2-{[8-(3-fluoro-benzylidene)-1-methyl-1,4,5,6,7,8-hexahydro-cycloheptapyrazole-3-carbonyl]-amino}-3-(4-fluoro-phenyl)-propionic acid methyl ester] was tested, and the IC50 ([2]; Cannabinoid CB2 Receptor Binding IC50, calculated by linear regression from percent inhibition at various test concentrations) was 3 nM, the inhibition at 0.2 µM [2, 8] was 96% and the IC50 [3] was 7 nM. For the same compound, the inhibition at 0.2 µM [3] was 89%.
